What was measured:
[1] = Microsomal stability, human (HLM); assay type: in vitro ADME; conditions: liver microsomes, 0.5 mg protein/mL, 1 µM test compound
Method: (§1) In order to assess metabolic stability of test compounds, commercially acquired CD-1 mouse liver microsome preparations were incubated in 100 µL at a final concentration of 0.5 mg protein/mL, 1 µM test compound, 0.99% methanol and 0.01% DMSO, after a 10 minute pre-incubation at 37°C and addition of 0.1 volumes 10 U/mL NADPH in 10 mM MgCl2. Reactions were stopped by addition of 300 µL cold acetonitrile containing internal standards at t = 0, 5, 10, 20, 30, and 60 minutes. Samples were submitted to LC-MS/MS analysis subsequently and the slope of linear regression of time versus In(% Remaining concentration) was derived to calculate t½ as t½= In(2) /(-Slope). Then Clint(mic) and Clint(liver) were calculated as follows: CLint(mk) = (0.693)/(In vitro T1/2) · (1)/(mg/mL microsomal protein in reaction system) [formula] CLint(liver) = CLint(mic) · (mg microsomes)/(g liver) · (g liver)/(kg body weight) [formula]
(§2) The same procedure was performed for human microsomes, SD rat microsomes and (beagle) dog microsomes.
Where 45 mg microsomal protein/g liver and 20 g liver/kg human bodyweight were used as standardized parameters for human microsomes.

recombinant QC enzyme = target: T1, recombinant QC enzyme (Homo sapiens, UniProt Q16769); assay: Assay 2 - QC potency, fluorescent enzymatic assay (H-Gln-AMC, coupled pGAPase detection); assay type: biochemical; conditions: 1 hour at 37°C
T1 construct: bacterial expression of residues 33-361 of uniprot ID Q16769, fused to a His tag; His tag (cleaved yes); made in house
Method: After scale-up, expression and lysis, protein was purified by Ni-NTA IMAC, dialysed in the presence of Factor Xa, further purified by Ni-NTA reverse IMAC and finally filtrated for size on a Superdex 200 16/60 column. Final protein was concentrated using a spin concentrator at 10 kDa molecular weight cut-off and formulated in 150 mM NaCl, 50 mM Tris-HCl, 50% Glycerol, pH 8.0.
Pyroglutamylation was measured by conversion of glutamine-4-amino-7-methylcoumarine (H-Gln-AMC, Bachem) to pyroglutamyl-AMC, which is subsequently a specific substrate for pyroglutamylaminopeptidase (pGAPase, Qiagen), releasing free AMC which can be fluorescently detected. For a typical inhibition assay, 7.5 µL aliquots of threefold dilutions of test compound in 50 mM Tris pH8 buffer were plated in 384-well plates. 15 µL 20 µM h-Gln-AMC (diluted from a 40 mM stock dissolved in 25 mM HEPES using 50 mM Tris-HCl pH 8.0) was added to each well. Finally, 7.5 µL, 3 ng/µL recombinant QC enzyme was added and the reaction mixture was incubated for 1 hour at 37°C. A 5 minute incubation at 98°C was then performed to denature the QC enzyme and stop the reaction.
25 µL of the pyroglutamylation reaction mixture was transferred into an empty plate and to that, 25 µL of the pGAPase enzyme solution was added. Plates were then incubated for 25 minutes at room temperature before fluorescence readings were taken on an Envision2 plate reader with excitation set at 380 nm and emission at 450 nm.
Controls were taken along containing pyroglutamylated-AMC (Bachem, dissolved at 10 mM in DMSO) instead of H-Gln-AMC to control for pGAPase inhibition.
IC50 values are calculated using non-linear regression analysis with GraphPad Prism software.

[2] = Microsomal stability, rat (RLM); assay type: in vitro ADME; conditions: liver microsomes; SD rat microsomes, 0.5 mg protein/mL, 1 µM test compound
Method: as §1, §2
Where 45 mg microsomal protein/g liver and 40 g liver/kg rat bodyweight were used as standardized parameters for rat microsomes.

[3] = Microsomal stability, dog (DLM); assay type: in vitro ADME; conditions: liver microsomes; (beagle) dog microsomes, 0.5 mg protein/mL, 1 µM test compound
Method: as §1, §2
Where 45 mg microsomal protein/g liver and 32 g liver/kg dog bodyweight were used as standardized parameters for […].

[4] = CACO-2-based cell-permeation and efflux; assay type: in vitro ADME; conditions: human, 2 µM compound, pH 7.40; for Papp A→B at 2 h, 2 µM: Caco-2, pH 7.4, A2B; for Papp B→A at 2 h, 2 µM: Caco-2, pH 7.4, B2A
Method: CACO-2 (ATCC, Manassas, VA, USA) monolayers on polyethylene membranes in 96-well insert plates were incubated for 2 hours in 5% C02, 37°C with 2 µM compound tested bidirectionally in duplicate using HBSS with 10 mM HEPES at pH 7.40 ±0.05 as transport buffer. Final DMSO Concentrations were adjusted to less than 1%. All samples were mixed with acetonitrile containing internal standard and centrifuged at 3220 x g for 10 minutes. Subsequently, 100 µL supernatant solution was diluted with 100 µL distilled water for LC/MS/MS analysis. Lucifer yellow rejection assays were applied after the transport assay to ensure CACO-2 cell monolayer integrity.
The apparent permeability coefficient Papp (cm/s) was calculated using the equation: Papp = (dCr/dt) × Vr/(A×CO) [formula] where dCr/dt is the cumulative concentration of compound in the receiver chamber as a function of time (µM/s); Vr is the solution volume in the receiver chamber (0.075 mL on the apical side, 0.25 mL on the basolateral side); A is the surface area for the transport, i.e., 0.0804 cm^2 or the area of the monolayer; CO is the initial concentration in the donor chamber (µM).

[5] = Microsomal stability, mouse (MLM); assay type: in vitro ADME, CD-1 mouse; conditions: mouse liver microsomes, 0.5 mg protein/mL, 1 µM test compound
Method: as §1
Where 45 mg microsomal protein/g liver and 88 g liver/kg mouse bodyweight were used as standardized parameters for mouse microsomes.

[6] = Low dose pharmacokinetics; assay type: in vivo; conditions: mouse, plasma, iv, 1 mg/kg; C57BI/6 mice, intravenously, 1 mg per kg bodyweight
Method: In order to determine the stability of test compounds in plasma, low-dose pharmacokinetic experiments were carried out in C57BI/6 mice. Test compounds were dissolved at 0.1 mg/mL in an appropriate vehicle and dosed intravenously at 1 mg per kg bodyweight in three animals per compound. At various (between 5 and 9) timepoints after injection, up to 24 hours, blood samples were drawn, plasma isolated and test compound concentrations were determined using LC-MS/MS. t½ values were subsequently calculated using Phoenix WinNonlin 6.3 software and averaged over the three mice per test compound.

Pan02 cells = assay: In vivo Pan02 syngeneic mouse model; set-up: species or system C57BL/6 female mice
Method: Anti tumor effects were evaluated in the Pan02, pancreatic adenocarcinoma syngeneic mouse tumor model. For this study 3 × 10^6 Pan02 cells were injected in the right front flank of C57BL/6 female mice. Tumor size was measured and when tumors reached an average size of 80-120 mm^3, treatment was started. Treatment consisted of compound alone, or in combination with the anti PD-L1 antibody (B7-H1). Compound (1) was administered orally at 100 mg/kg once daily and anti-PD-L1 antibody was administered intraperitoneally at 10 mg/kg twice weekly. Tumor progression was monitored by tumor volume measurement using a caliper.

T1 sequence (Q16769 33-361): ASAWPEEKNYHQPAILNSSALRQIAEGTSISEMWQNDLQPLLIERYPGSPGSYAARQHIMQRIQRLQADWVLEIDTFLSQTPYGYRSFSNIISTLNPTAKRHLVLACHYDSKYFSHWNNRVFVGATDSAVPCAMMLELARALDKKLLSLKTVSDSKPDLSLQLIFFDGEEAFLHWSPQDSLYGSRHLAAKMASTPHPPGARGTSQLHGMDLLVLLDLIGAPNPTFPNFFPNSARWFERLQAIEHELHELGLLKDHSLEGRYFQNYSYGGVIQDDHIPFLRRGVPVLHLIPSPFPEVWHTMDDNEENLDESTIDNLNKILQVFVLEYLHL

Compound	CLint scaled at 1 µM [1] [mL/min/kg]	IC50 (recombinant QC enzyme) [nM]	CLint scaled at 1 µM [2] [mL/min/kg]	CLint scaled at 1 µM [3] [mL/min/kg]	Papp A→B at 2 h, 2 µM [4] [×10⁻⁶ cm/s]	Papp B→A at 2 h, 2 µM [4] [×10⁻⁶ cm/s]	CLint scaled at 1 µM [5] [mL/min/kg]	half-life [6] [h]	anti tumor effect (tumor volume), combined with anti-PD-L1 antibody (Pan02 cells; (1) orally 100 mg/kg once daily plus anti-PD-L1 antibody intraperitoneally 10 mg/kg twice weekly)	anti tumor effect (tumor volume), compound alone (Pan02 cells; (1) orally 100 mg/kg once daily, by itself)
O=C1OCC(c2ccc(N3CCCC3)cc2)N1c1ccc2[nH]cnc2c1 (single isomer, unassigned) [(18)-ent2]	73.8	31.2	1070	32.8	2.8	18.8	488			
O=C1OCC(c2ccc(C3CCC(F)(F)CC3)cc2)N1c1ccc2[nH]cnc2c1 (single isomer, unassigned) [(19)-ent2]	19.7		49.9	21.8	3.9	23.9	339			
O=C1OC[C@H](c2ccc(-c3cnn(C(F)(F)F)c3)cc2F)N1c1ccc2[nH]cnc2c1 [Compound (1)]	< 8.6	10.3			2	21.9	67.5	3.99 to 4.58	tumor regression	tumor growth inhibition

Reference: EP4455142A1, “NOVEL INHIBITOR OF QPCTL AND/OR QC” (Scenic Immunology B.V., priority 2023, dated 2024)
